Columns and labels:
[1] = system: actinic keratosis (AK) lesions; test: Clinical treatment of actinic keratosis lesions and recurrence at follow-up, Example 5; assay type: in vivo
Experimental: Subjects with four to eight clinically typical, visible, discrete actinic keratosis (AK) lesions in a 25 cm^2 treatment area were randomized in a 1:1 ratio to receive either a 5% cream formulation of IRM14 (ALDARA, 3M Company, St. Paul, Minn.) or vehicle cream once daily three days per week. Subjects received treatment for sixteen weeks even if clinical evidence of lesion clearance was observed. Subjects were evaluated at an Evaluation visit eight weeks after the treatment period concluded.
Subjects were instructed to administer a single application of cream (vehicle or IRM14, as assigned) to the treatment area at approximately the same time of day three days per week. The subjects were instructed to wash the treatment area prior to applying the cream, rub the cream into the treatment area, and then leave the cream in place for at least eight hours without occlusion.
Subjects with no (zero) clinically visible AK lesions in the 25 cm^2 treatment area at the Evaluation visit were considered complete responders. 117 of 242 (48.3%) subjects receiving IRM14 were complete responders; 18 of 250 (7.2%) vehicle-treated subjects were complete responders.
Complete responders were re-evaluated for recurrence of AK lesions at a Follow-up visit between 12 and 18 months after the Evaluation visit. Subjects received no IRM14 treatment between the Evaluation visit and the Follow-up visit. […]

[2] = system: UV-induced squamous cell carcinoma (SCC), actinic keratosis (AK), or pre-AK lesions; test: UV-induced epidermal neoplasia in SKH-1 mice, Example 1 (UV and IRM dosing initiated simultaneously, 15 weeks); assay type: in vivo; conditions: 0.1% formulation in Vehicle 1, topical twice per week, UV five days per week for 15 weeks
Source text: (§1) Female SKH-1 mice 9-10 weeks old were obtained from Charles River (Raleigh, N.C.) and housed in a room with controlled temperatures and humidity and alternating 12-hour light and dark cycles. The room is lit with fluorescent lights covered by yellow sleeves from EncapSulite International, Inc. (Rosenberg, Tex.) to eliminate all ambient UV radiation. The mice were fed with a 12% Corn Oil Purified Diet from Purina Test Diet (Richmond, Va.) and water, ad libitum. […]
(§2) Mice were placed in a standard plexiglass rat cage, 9-10 at a time, that was separated into 12 individual compartments with plexiglass dividers and placed on a shelf 14 inches below the light source without wire cage tops. […] The lights emit UVB (21%) and UVA (79%) light with a peak wavelength of 313 nm, as measured using a radiometer Model PMA 2200 from Solar Light Company (Philadelphia, Pa.) with a PMA 2101 detector for UVB and PMA2110 detector for UVA.
(§3) The dose of UVB irradiation was measured by MED (minimal erythemal dose). […]
(§4) All mice were distinguished from one another by a tattoo placed on the tail. The development and appearance of tumors were noted weekly and recorded starting at about 14-18 weeks. […]

[3] = system: UV-induced squamous cell carcinoma (SCC), actinic keratosis (AK), or pre-AK lesions; test: UV-induced epidermal neoplasia in SKH-1 mice, Example 3 (simultaneous initiation, 18 weeks); assay type: in vivo; conditions: for % Disease: topical twice per week, UV five days per week for 18 weeks; for Avg. Disease Score: twice per week, UV 18 weeks, SCC + AK + pre-AK lesion score (Table 5)
Source text: (§5) Female SKH-1 mice 9-10 weeks old were obtained from Charles River (Raleigh, N.C.) and housed in a room with controlled temperatures and humidity and alternating 12-hour light and dark cycles. The room is lit with fluorescent lights covered by yellow sleeves from EncapSulite International, Inc. (Rosenberg, Tex.) to eliminate all ambient UV radiation. The mice were fed with a 12% Corn Oil Purified Diet from Purina Test Diet (Richmond, Va.) and water, ad libitum. The animals were maintained in facilities approved by the Association for the Assessment and Accreditation of Laboratory Animal Care International and in accordance with current United States Department of Agriculture, Department of Health and Human Services, and National Institutes of Health regulations and standards.
(§6) A small group of mice were not exposed to UV and were used as negative controls. The other mice were chronically UV irradiated. After randomization the mice were lightly anesthetized with halothane and adjustable collars made of hook and loop fastener approximately 10 mm wide and 70 mm long were placed around the mouse's neck to prevent oral ingestion of the IRM. Unless otherwise indicated, thirty minutes before UV exposure mice were topically dosed with 30 μL of either (1) vehicle formulation, (2) IRM formulation, or (3) an SPF 30 sunscreen (NEUTROGENA SPF30 Sunblock with PARSOL 1789), two times per week for a total of 15-18 weeks on the dorsal surface in an area approximately 6 cm^2. Approximately four hours after dosing, the topical treatment (i.e, vehicle formulation; IRM formulation, or sunscreen) was washed off using a dilute soap solution.
(§7) Mice were placed in a standard plexiglass rat cage, 9-10 at a time, that was separated into 12 individual compartments with plexiglass dividers and placed on a shelf 14 inches below the light source without wire cage tops. The mice were exposed to UV radiation 5 times per week (Monday thru Friday) for an average of 15-18 weeks. The UV radiation was provided by a bank of six FS40 lamps (National Biological Corporation, Twinsburg, Ohio), filtered by a Kodacel filter (140 μm thick K6808 cellulose triacetate film; Eastman Kodak, Rochester, N.Y.) that transmits radiation having a wavelength from about 293 nm to about 400 nm. The Kodacel filter was aged 4-6 hours before use. The lights emit UVB (21%) and UVA (79%) light with a peak wavelength of 313 nm, as measured using a radiometer Model PMA 2200 from Solar Light Company (Philadelphia, Pa.) with a PMA 2101 detector for UVB and PMA2110 detector for UVA.
(§8) The dose of UVB irradiation was measured by MED (minimal erythemal dose). By using MED, a relatively constant incident dose of UV was maintained over time. The initial dose of UVB to the mice was 12.6 mJ/cm^2 (0.6 MED) and the average total dose of UVB was 3000-5200 mJ/cm^2. An increase of 10-20% of the MED dose per week was needed due to acclimation of the mice.
(§9) All mice were distinguished from one another by a tattoo placed on the tail. The development and appearance of tumors were noted weekly and recorded starting at about 14-18 weeks.
Formulations of IRM1 and IRM2 were prepared using Vehicle 1. UV dosing and IRM dosing were initiated simultaneously. UV dosing was performed five days per week for 18 weeks.
After 18 weeks, the mice were subjected to gross inspection to determine the presence of a disease state, i.e., squamous cell carcinoma (SCC), actinic keratosis (AK), or pre-AK lesions.
The disease state of each mouse was scored by measuring the size and/or number of lesions present on the mouse. SCC lesions and AK lesions of at least 1 mm in diameter were given a score of 1.
The SCC lesion score, AK lesion score, and the pre-AK lesion score (according to Table 5) were added to provide a total disease score for each mouse. Table 6 includes the average disease score for all of the mice in each treatment group.

[4] = system: UV-induced squamous cell carcinoma (SCC), actinic keratosis (AK), or pre-AK lesions; test: UV-induced epidermal neoplasia in SKH-1 mice, Example 4 (simultaneous initiation, 17 weeks); assay type: in vivo; conditions: 0.1% formulation, twice per week; for Avg. Disease Score: UV 17 weeks, every SCC, AK and pre-AK lesion scored 1; for % Disease / Diseased (number of mice): UV five days per week for 17 weeks
Source text: as §5, §6, §7, §8, §9
UV dosing and IRM dosing were initiated simultaneously. Daily UV dosing was performed five days per week for 17 weeks. IRM dosing was performed twice per week with the compounds indicated in Table 9, each in a 0.1% formulation. SPF dosing was performed five times per week.
An additional group of mice were topically dosed twice per week with 0.1% formulation of a non-IRM control compound: 1,5-dihydro-1-(2-methylpropyl)-4H-imidazo[4,5-c]quinolin-4-one, the synthesis of which is described in U.S. Pat. No. 4,698,348, Example 71, formulated as shown in Table 8. The non-IRM compound is structurally related to, but outside the scope of, IRM compounds as provided above. […] Mice in the non-IRM group were UV dosed five times per week for 18 weeks. […]

[5] = system: cytokines; test: Induction of production and secretion of cytokines
[6] = system: UV-induced squamous cell carcinoma (SCC), actinic keratosis (AK), or pre-AK lesions; test: UV-induced epidermal neoplasia in SKH-1 mice, Example 2 (UV dosing six weeks before IRM dosing, 15 weeks); assay type: in vivo; conditions: topical twice per week, UV for six weeks before IRM dosing, UV five days per week for 15 weeks
Source text: as §1, §2, §3, §4

| Compound | Avg. Disease Score [4] | % Disease [4] [%] | Diseased (number of mice) [4] | other results |
| --- | --- | --- | --- | --- |
| CC(C)Cn1cnc2c(N)nc3ccccc3c21 [IRM14, 1-(2-methylpropyl)-1H-imidazo[4,5-c]quinolin-4-amine] |  |  |  | complete responders (no clinically visible AK lesions in the 25 cm^2 treatment area at the Evaluation visit) ([1]; 5% cream once daily three days per week for sixteen weeks, evaluated eight weeks after treatment, 117 of 242 subjects): 48.3%; AK Recurrence Rate ([1]; complete responders at Follow-up visit 12 to 18 months after Evaluation visit, no treatment in between, 77 IRM14-treated): 24.7% |
| CC(C)Cn1cnc2c(N)nc3cccnc3c21 [IRM1, 1-(2-methylpropyl)-1H-imidazo[4,5-c][1,5]naphthyridin-4-amine] |  |  |  | % Disease (percentage of mice exhibiting a disease state) [2]: 0%; % Disease ([3]; 0.01% formulation): 71%; Avg. Disease Score ([3]; 0.01% formulation): 2.86 ± 0.82; % Disease ([3]; 0.1% formulation): 50%; Avg. Disease Score ([3]; 0.1% formulation): 0.66 ± 0.33 |
| CCCc1nc2c(N)nc3ccccc3c2n1CC(C)(C)NS(C)(=O)=O [IRM6, N-[2-(4-amino-2-propyl-1H-imidazo[4,5-c]quinolin-1-yl)-1,1-dimethylethyl]methanesulfonamide] | 0.38 ± 0.38 | 13 | 1 |  |
| CC(C)Cn1cnc2c(=O)[nH]c3ccccc3c21 [non-IRM, 1,5-dihydro-1-(2-methylpropyl)-4H-imidazo[4,5-c]quinolin-4-one] |  |  |  | induction of production and secretion of cytokines [5]: does not induce the production and secretion of cytokines |
| Nc1nc2ccccc2c2c1ncn2CCOCCCc1cccnc1 [IRM10, 1-{2-[3-(3-pyridyl)propoxy]ethyl}-1H-imidazo[4,5-c]quinolin-4-amine] | 2.50 ± 1.07 | 70 | 7 |  |
| CCc1nc2c(N)nc3ccccc3c2n1CCCCNC(=O)C(C)C [IRM5, N-[4-(4-amino-2-ethyl-1H-imidazo[4,5-c]quinolin-1-yl)butyl]-2-methylpropanamide] | 5.40 ± 1.91 | 60 | 6 |  |
| CCCCc1nc2c(N)nc3ccccc3c2n1CCCS(C)(=O)=O [IRM11, 2-butyl-1-[3-(methylsulfonyl)propyl]-1H-imidazo[4,5-c]quinolin-4-amine] | 0.70 ± 0.47 | 20 | 2 |  |
| Cc1nc2c(N)nc3cccnc3c2n1CC(C)C [IRM2, 2-methyl-1-(2-methylpropyl)-1H-imidazo[4,5-c][1,5]naphthyridin-4-amine] |  |  |  | % Disease (percentage of mice exhibiting a disease state) [2]: 11%; % Disease ([3]; 0.01% formulation): 71%; Avg. Disease Score ([3]; 0.01% formulation): 4.86 ± 1.81; % Disease ([3]; 0.1% formulation): 25%; Avg. Disease Score ([3]; 0.1% formulation): 0.6 ± 0.42; % Disease ([6]; 0.1% formulation): 63%; % Disease ([6]; 1.0% formulation): 50% |
| CCOCc1nc2c(N)nc(C)c(C)c2n1CC(C)(C)NC(=O)NC1CCCCC1 [IRM9, N-{2-[4-amino-2-(ethoxymethyl)-6,7-dimethyl-1H-imidazo[4,5-c]pyridin-1-yl]-1,1-dimethylethyl}-N′-cyclohexylurea] | 2.00 ± 0.89 | 60 | 3 |  |
| CCCc1nc2c(N)nc3ccccc3c2n1CCCCNC(=O)NC(C)C [IRM8, N-[4-(4-amino-2-propyl-1H-imidazo[4,5-c]quinolin-1-yl)butyl]-N′-isopropylurea] | 3.13 ± 0.89 | 75 | 6 |  |
| Nc1nc2ccccc2c2c1nc1n2CCCC1 [IRM3, 8,9,10,11-tetrahydropyrido[1′,2′:1,2]imidazo[4,5-c]quinolin-6-amine] | 1.00 ± 0.54 | 30 | 3 |  |
| CCOCc1nc2c(N)nc3ccccc3c2n1CC(C)(C)NC(=O)C1CCCCC1 [IRM4, N-{2-[4-amino-2-(ethoxymethyl)-1H-imidazo[4,5-c]quinolin-1-yl]-1,1-dimethylethyl}cyclohexanecarboxamide] | 0.67 ± 0.67 | 11 | 1 |  |
| CCCCc1nc2c(N)nc3ccccc3c2n1CCS(=O)(=O)CCC [IRM12, 2-butyl-1-[2-(propylsulfonyl)ethyl]-1H-imidazo[4,5-c]quinolin-4-amine] | 0.00 ± 0.00 | 0 | 0 |  |
| COCCc1nc2c(N)nc3c(c2n1CC(C)(C)NS(C)(=O)=O)CCCC3 [IRM7, N-{2-[4-amino-2-(2-methoxyethyl)-6,7,8,9-tetrahydro-1H-imidazo[4,5-c]quinolin-1-yl]-1,1-dimethylethyl}methanesulfonamide] | 3.90 ± 1.30 | 60 | 6 |  |
| CCOCc1nc2c(N)nc3ccccc3c2n1NC(C)C [IRM13, 2-ethoxymethyl-N^1-isopropyl-1H-imidazo[4,5-c]quinoline-1,4-diamine] | 3.33 ± 1.54 | 67 | 4 |  |
